Source: patent publication US20260262643A1, “HERBICIDAL BENZOXAZINES” (FMC CORPORATION, priority 2022, published 2026)

Experiments:
barnyardgrass [1] = assay: Test C preemergence; type: in vivo, Echinochloa crusgalli
How it was run: (§1)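 Test material, in non-phytotoxic solvent with surfactant, was sprayed on the soil directly after seeding (preemergence) or on young plants of 2–10 cm with one to two leaves (postemergence). Greenhouse, 10 days; 0–100 visual control scale.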

blackgrass [2] = assay: Test C preemergence; type: in vivo, Alopecurus myosuroides
How it was run: as §1

corn [3] = assay: Test C preemergence; type: in vivo, Zea mays
How it was run: as §1

green foxtail [4] = assay: Test C preemergence; type: in vivo, Setaria viridis
How it was run: as §1

kochia [5] = assay: Test C preemergence; type: in vivo, Bassia scoparia
How it was run: as §1

oat, wild [6] = assay: Test C preemergence; type: in vivo, Avena fatua
How it was run: as §1

pigweed, palmer [7] = assay: Test C preemergence; type: in vivo, Amaranthus palmeri
How it was run: as §1

ragweed [8] = assay: Test C preemergence; type: in vivo, Ambrosia artemisiifolia
How it was run: as §1

ryegrass, Italian [9] = assay: Test C preemergence; type: in vivo, Lolium multiflorum
How it was run: as §1

soybean [10] = assay: Test C preemergence; type: in vivo, Glycine max
How it was run: as §1

wheat [11] = assay: Test C preemergence; type: in vivo, Triticum aestivum
How it was run: as §1

barnyardgrass [12] = assay: Test C postemergence; type: in vivo, Echinochloa crusgalli; conditions: 10 days, 0 to 100 scale (0 no effect, 100 complete control)
How it was run: as §1

blackgrass [13] = assay: Test C postemergence; type: in vivo, Alopecurus myosuroides; conditions: 10 days, 0 to 100 scale (0 no effect, 100 complete control)
How it was run: as §1

corn [14] = assay: Test C postemergence; type: in vivo, Zea mays; conditions: 10 days, 0 to 100 scale (0 no effect, 100 complete control)
How it was run: as §1

green foxtail [15] = assay: Test C postemergence; type: in vivo, Setaria viridis; conditions: 10 days, 0 to 100 scale (0 no effect, 100 complete control)
How it was run: as §1

kochia [16] = assay: Test C postemergence; type: in vivo, Bassia scoparia; conditions: 10 days, 0 to 100 scale (0 no effect, 100 complete control)
How it was run: as §1

oat, wild [17] = assay: Test C postemergence; type: in vivo, Avena fatua; conditions: 10 days, 0 to 100 scale (0 no effect, 100 complete control)
How it was run: as §1

pigweed, palmer [18] = assay: Test C postemergence; type: in vivo, Amaranthus palmeri; conditions: 10 days, 0 to 100 scale (0 no effect, 100 complete control)
How it was run: as §1

ragweed [19] = assay: Test C postemergence; type: in vivo, Ambrosia artemisiifolia; conditions: 10 days, 0 to 100 scale (0 no effect, 100 complete control)
How it was run: as §1

ryegrass, Italian [20] = assay: Test C postemergence; type: in vivo, Lolium multiflorum; conditions: 10 days, 0 to 100 scale (0 no effect, 100 complete control)
How it was run: as §1

soybean [21] = assay: Test C postemergence; type: in vivo, Glycine max; conditions: 10 days, 0 to 100 scale (0 no effect, 100 complete control)
How it was run: as §1

wheat [22] = assay: Test C postemergence; type: in vivo, Triticum aestivum; conditions: 10 days, 0 to 100 scale (0 no effect, 100 complete control)
How it was run: as §1

galium = assay: Test C postemergence; type: in vivo, Galium aparine; conditions: 10 days, 0 to 100 scale (0 no effect, 100 complete control)
How it was run: as §1

horseweed = assay: Test C postemergence; type: in vivo, Erigeron canadensis; conditions: 10 days, 0 to 100 scale (0 no effect, 100 complete control)
How it was run: as §1

barnyardgrass [23] = assay: Test D flooded paddy test; type: in vivo, Echinochloa crus-galli; conditions: 250 g ai/ha, applied to paddy water, visual rating after 13 to 14 days, scale 0 to 100 (0 no effect, 100 complete control)
How it was run: (§2)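 2-leaf plants; flood 3 cm above soil; compound dosed into paddy water; greenhouse 13–14 d; visual rating vs controls, 0–100 (100 = complete control); dash = not tested.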

ducksalad = assay: Test D flooded paddy test; type: in vivo, Heteranthera limosa; conditions: 250 g ai/ha, applied to paddy water, visual rating after 13 to 14 days, scale 0 to 100 (0 no effect, 100 complete control)
How it was run: as §2

rice = assay: Test D flooded paddy test; type: in vivo, Oryza sativa; conditions: 250 g ai/ha, applied to paddy water, visual rating after 13 to 14 days, scale 0 to 100 (0 no effect, 100 complete control)
How it was run: as §2

sedge, umbrella = assay: Test D flooded paddy test; type: in vivo, Cyperus difformis; conditions: 250 g ai/ha, applied to paddy water, visual rating after 13 to 14 days, scale 0 to 100 (0 no effect, 100 complete control)
How it was run: as §2

[24] = 500 g ai/ha, preemergence, 0 to 100 scale (0 no effect, 100 complete control)
[25] = Preemergence, 125 g ai/ha, 0 to 100 scale, 0 no effect, 100 complete control

Cc1cccc2c1O[C@@H](C)CN2C(=O)c1cc(-n2cnc(C(C)C)n2)cc2c1CCO2 [Compound 392]
Barnyardgrass plant response rating (barnyardgrass [1]; [24]): 100
Plant response rating, Barnyardgrass (barnyardgrass [1]; [25]): 90
Blackgrass plant response rating (blackgrass [2]; [24]): 80
Plant response rating, Blackgrass (blackgrass [2]; [25]): 70
Corn plant response rating (corn [3]; [24]): 70
Plant response rating, Corn (corn [3]; [25]): 30
Foxtail, Green plant response rating (green foxtail [4]; [24]): 100
Plant response rating, Foxtail, Green (green foxtail [4]; [25]): 100
Kochia plant response rating (kochia [5]; [24]): 90
Plant response rating, Kochia (kochia [5]; [25]): 90
Oat, Wild plant response rating (oat, wild [6]; [24]): 90
Plant response rating, Oat, Wild (oat, wild [6]; [25]): 50
Pigweed, Palmer plant response rating (pigweed, palmer [7]; [24]): 100
Plant response rating, Pigweed, Palmer (pigweed, palmer [7]; [25]): 100
Ragweed plant response rating (ragweed [8]; [24]): 80
Plant response rating, Ragweed (ragweed [8]; [25]): 80
Ryegrass, Italian plant response rating (ryegrass, Italian [9]; [24]): 100
Plant response rating, Ryegrass, Italian (ryegrass, Italian [9]; [25]): 90
Soybean plant response rating (soybean [10]; [24]): 100
Plant response rating, Soybean (soybean [10]; [25]): 90
Wheat plant response rating (wheat [11]; [24]): 60
Plant response rating, Wheat (wheat [11]; [25]): 20
Plant response rating, Barnyardgrass (barnyardgrass [12]; 500 g ai/ha, postemergence): 80
Plant response rating, Barnyardgrass (barnyardgrass [12]; Postemergence, 125 g ai/ha): 50
Plant response rating, Blackgrass (blackgrass [13]; 500 g ai/ha, postemergence): 90
Plant response rating, Blackgrass (blackgrass [13]; Postemergence, 125 g ai/ha): 80
Plant response rating, Corn (corn [14]; 500 g ai/ha, postemergence): 80
Plant response rating, Corn (corn [14]; Postemergence, 125 g ai/ha): 30
Plant response rating, Foxtail, Green (green foxtail [15]; 500 g ai/ha, postemergence): 90
Plant response rating, Foxtail, Green (green foxtail [15]; Postemergence, 125 g ai/ha): 60
Plant response rating, Kochia (kochia [16]; 500 g ai/ha, postemergence): 90
Plant response rating, Kochia (kochia [16]; Postemergence, 125 g ai/ha): 90
Plant response rating, Oat, Wild (oat, wild [17]; 500 g ai/ha, postemergence): 90
Plant response rating, Oat, Wild (oat, wild [17]; Postemergence, 125 g ai/ha): 70
Plant response rating, Pigweed, Palmer (pigweed, palmer [18]; 500 g ai/ha, postemergence): 100
Plant response rating, Pigweed, Palmer (pigweed, palmer [18]; Postemergence, 125 g ai/ha): 100
Plant response rating, Ragweed (ragweed [19]; 500 g ai/ha, postemergence): 90
Plant response rating, Ragweed (ragweed [19]; Postemergence, 125 g ai/ha): 90
Plant response rating, Ryegrass, Italian (ryegrass, Italian [20]; 500 g ai/ha, postemergence): 100
Plant response rating, Ryegrass, Italian (ryegrass, Italian [20]; Postemergence, 125 g ai/ha): 80
Plant response rating, Soybean (soybean [21]; 500 g ai/ha, postemergence): 100
Plant response rating, Soybean (soybean [21]; Postemergence, 125 g ai/ha): 100
Plant response rating, Wheat (wheat [22]; 500 g ai/ha, postemergence): 60
Plant response rating, Wheat (wheat [22]; Postemergence, 125 g ai/ha): 50
Plant response rating, Galium (galium; 500 g ai/ha, postemergence): 100
Plant response rating, Galium (galium; Postemergence, 125 g ai/ha): 100
Plant response rating, Horseweed (horseweed; 500 g ai/ha, postemergence): 90
Plant response rating, Horseweed (horseweed; Postemergence, 125 g ai/ha): 60
Plant response rating, Barnyardgrass (Flood) (barnyardgrass [23]): 40
Plant response rating, Ducksalad (Flood) (ducksalad): 65
Plant response rating, Rice (Flood) (rice): 0
Plant response rating, Sedge, Umbrella (Flood) (sedge, umbrella): 65
